{"source": "the NIST ThermoML archive (doi:10.1016/j.jct.2003.09.005)", "key": {"[1]": {"conditions": "298.15 K; 101.33 kPa; Liquid"}, "[2]": {"experiment": "xn = mol fraction of the nth substance listed", "conditions": "298.15 K, 101.33 kPa, Liquid, Vibrating tube method"}}, "note": "Several values for one entry are separate records, joined by “and”; a condition that tells them apart may be missing. Equal values may be shown once. Numbers after ± are expanded uncertainties."}
{"smiles": "COCCOC", "note": "[1,2-dimethoxyethane]", "values": [{"measurement": "mass density", "setting": "[1]", "value": "861.43 ± 0.56", "unit": "kg/m3"}]}
{"smiles": "CC#N", "note": "[acetonitrile]", "values": [{"measurement": "mass density", "setting": "[1]", "value": "776.69 ± 0.62", "unit": "kg/m3"}]}
{"smiles": "CCOC(C)=O", "note": "[ethyl acetate]", "values": [{"measurement": "mass density", "setting": "[1]", "value": "894.51 ± 0.54", "unit": "kg/m3"}]}
{"smiles": "O=C1OCCO1", "note": "[ethylene carbonate] + C1CCOC1", "values": [{"measurement": "mass density", "setting": "[2]; x2 = 0.4631", "value": "1110.32 ± 0.57 kg/m3 and 1109.98 ± 0.57 kg/m3 and 1109.85 ± 0.57 kg/m3"}]}
{"smiles": "O=C1OCCO1", "note": "[ethylene carbonate] + CC#N", "values": [{"measurement": "mass density", "setting": "[2]; x2 = 0.5533", "value": "1070.54 ± 0.55 kg/m3 and 1071.16 ± 0.54 kg/m3"}]}
{"smiles": "O=C1OCCO1", "note": "[ethylene carbonate] + CCOC(C)=O", "values": [{"measurement": "mass density", "setting": "[2]; x2 = 0.4577", "value": "1118.46 ± 0.58 kg/m3 [middle of 4 runs]"}]}
{"smiles": "O=C1OCCO1", "note": "[ethylene carbonate] + COCCOC", "values": [{"measurement": "mass density", "setting": "[2]; x2 = 0.4158", "value": "1099.62 ± 0.57 kg/m3 and 1099.78 ± 0.56 kg/m3 and 1100.01 ± 0.56 kg/m3"}]}
{"smiles": "C1CCOC1", "note": "[tetrahydrofuran]", "values": [{"measurement": "mass density", "setting": "[1]", "value": "882.01 ± 0.54", "unit": "kg/m3"}]}
